Assay results as given in patent publication US20240165196A1, “Beta-Lactamase Inhibitors” (VIB VZW, priority 2021, published 2024).

Tests used:
Format in all cases: cell-based
[1] = tested on: E. coli clinical isolate, β-lactamase TEM-ESBL; assay: MIC of ampicillin without/with 30 μg/mL TEM3.2, clinical isolates
Protocol: (§1) Moreover, the core sequence of peptide TEM3.0 also occurs in the structurally related SHV β-lactamase (FIG. 2E). Although the C-terminal extension residues H and N have been replaced with physicochemically similar R and Q, respectively (FIG. 2H). […] To quantify the synergy between these four peptides and penicillin G, we performed a so-called checkerboard assay, which allows to compare the activity of two test compounds co-incubated (here peptide and a beta-lactam antibiotic), to their individual activities in isolation. The result from the assay is quantified as the Fractional Inhibitory Concentration Index (FICI), and it is generally accepted that values below 0.5 indicate synergistic effects between the compounds. As a control, we generated a peptide using the same design, but based on a previously identified APR from the β-galactosidase enzyme (BGAL)^16 from E. coli (APR=SVIIWSL, peptide sequence=[…]) that has a MIC value>100 μg/mL on E. coli strain UZ_TEM104. We evaluated the synergy of the peptides with penicillin G in clinical E. coli isolates carrying the TEM (FIG. 2I) or SHV enzymes (FIG. 2J). […] As a further control, we also performed a checkerboard assay with an E. coli strain that was resistant to the aminoglycoside kanamycin and observed no synergy between this unrelated antibiotic and our peptides (FIG. 2L), in line with the notion that we are inhibiting a beta-lactamase but not the aminoglycoside degrading enzyme. […] The list of strains included some that harbored only TEM or SHV, but others contained additional Ambler Class A (CTX-M or OXA) or Class B (VIM and NDM) beta-lactamases. […] In contrast, the presence of the NDM-type […], that does have a high affinity for Ampicillin and that is completely distinct in sequence and structure from TEM and SHV, seemed to completely prevent the effect of the peptide on the beta-lactam sensitivity of the strains in which it occurred (see also further). As it appeared that TEM3.2 had activity in most isolates tested, we decided to focus further analysis on this peptide. Furthermore, we tested the performance of the TEM3.2 peptide in a checkerboard assay on strains carrying ESBL mutants of TEM, i.e. extended-spectrum mutations that cluster around the active site of the enzyme, and not in the aggregation prone region targeted by the peptide, and as expected from our mode of action, we observed synergy with ampicillin on these strains (FIG. 2M).
(§2) Determination of MIC values using the broth microdilution in the 96-well plate (BD Biosciences, Belgium) according to the EUCAST guideline, which was performed in 96-well polystyrene flat bottom microtiter plates (BD Biosciences). Briefly, a single colony was inoculated into 5 mL Difco™ Mueller Hinton Broth (BD Biosciences Ref 275730) and grown to the end-exponential growth phase in a shaking incubator at 37° C. Cultures were subsequently diluted to an MacFarland (0.5 optical density) then the culture was diluted to reach 10^6 CFU/mL in fresh MHB medium. 50 μl of different concentration of peptides ranging from 128 to 2 μg/mL were serially diluted to the sterile 96-well plate in MHB. 50 μL of the diluted bacteria in MHB were pipetted into 96-well plates to reach the final volume of 100 μL. The bacteria grown with the maximum concentration of carrier and medium were considered as positive and negative controls, respectively. The plates were statically incubated overnight at 37° C. to allow bacterial growth. OD was measured at 590 nm a multipurpose ultraviolet-visible plate reader, and the absorbance of the growth bacteria was measured using absorbance reader. Bacterial growth was also visually inspected and agreed well with the OD reading.

[2] = tested on: E. coli clinical isolate, β-lactamase TEM-ESBL; CTX-M-24; OXA-48; assay: as above; details: isolate 2017 Turkey, IAI, Abscess
Protocol: as §1, §2

[3] = tested on: E. coli clinical isolate, β-lactamase TEM-ESBL; CTX-M-TYPE; assay: as above; details: isolate 2017 France, IAI, Peritoneal Fluid
Protocol: as §1, §2

[4] = tested on: E. coli clinical isolate, β-lactamase SHV-2; CTX-M-55; VIM-1; assay: as above; details: isolate 2017 Turkey, UTI, Urine
Protocol: as §1, §2

[5] = tested on: E. coli clinical isolate, β-lactamase TEM-ESBL; CTX-M-15; NDM-5; assay: as above; details: isolate 2017 Qatar, UTI, Urine
Protocol: as §1, §2

[6] = tested on: E. coli clinical isolate, β-lactamase SHV-12; TEM-ESBL; assay: as above; details: isolate 2017 Germany, RTI, Bronchi
Protocol: as §1, §2

E. coli UZ_TEM104 = assay: FACS analysis with Propidium Iodide and pFTAA
Protocol: FIGS. 3A-3P. […] Three replicates are shown for each condition. […] A single representative image is shown. […] Three replicates are shown for each condition. (FIG. 3E) [Left] […] [Middle] […] [Right] […] A single representative image is shown. […] A single representative image is shown. […] A single representative image is shown. […] A single representative blot is shown. […] 106 cells were analysed for the plot.
First, we tested the assay using a mixture of live and heat inactivated (FIG. 3L) or just live bacteria (FIG. 3M), showing that heat inactivated, but not live bacteria are stained with PI, and neither are stained with pFTAA.
Bacterial cells in the cleaned suspensions were stained with both propidium iodide (PI) and FITC peptide to evaluate the killing rate and peptide uptake in a two-dimensional analysis. […] Treated bacteria washed with PBS buffer two times. One microliter of PI (Invitrogen) was added to the bacteria and incubated for 5 min. The bacteria were used by FACS tubes for 40000 events. To correlate the activity of the peptides with cell death, the fluorescence intensity was measured in two channels using the Gallios™ Flow Cytometer (Beckman Coulter, USA), PI: excitation 536 nm and emission 617 nm, FITC: excitation 490 nm and emission 525 nm. Heated bacteria at 90° C. for 10 min were used as PI-positive control.

## Ac-RLTAFLHNRRPRLTAFLRQRR-NH2 [TEM3.2]
[1]; isolate 2016 Germany, UTI, Urine
  MIC ampicillin + 30 μg/mL TEM-3.2: ≤0.06
[1]; isolate 2016 Lithuania, UTI, Urine
  MIC ampicillin + 30 μg/mL TEM-3.2: 1
[1]; isolate 2017 Israel, UTI, Urine
  MIC ampicillin + 30 μg/mL TEM-3.2: ≤0.06
[1]; isolate 2017 Portugal, RTI, Bronchi
  MIC ampicillin + 30 μg/mL TEM-3.2: 0.5
[1]; isolates 2016 South Africa, IAI, Peritoneal Fluid
  MIC ampicillin + 30 μg/mL TEM-3.2: ≤0.06
[2]
  MIC ampicillin + 30 μg/mL TEM-3.2: ≤0.06
[3]
  MIC ampicillin + 30 μg/mL TEM-3.2: ≤0.06
[4]
  MIC ampicillin + 30 μg/mL TEM-3.2: ≤0.06
[5]
  MIC ampicillin + 30 μg/mL TEM-3.2: >64
[6]
  MIC ampicillin + 30 μg/mL TEM-3.2: 0.12
E. coli UZ_TEM104; 50 μg/mL TEM3.2 in PBS, 4 h
  cells with non-lethal aggregation (shift only in pFTAA channel): > 99%
E. coli UZ_TEM104; 400 μg/mL penicillin G and 50 μg/mL TEM3.2, 4 h
  change in PI (cell death) and pFTAA (aggregation) channels: shift in both channels
